For the test, the system named is RBL-2H3-cells. The test is described as follows: Antigen-induced (DNP-BSA) activation of sensitised RBL-2H3 cells, fluorometric calcium measurement. It counts as cell-based. The following applies: Rattus norvegicus, read-out: inhibition of the antigen-induced cell activation. The method, then:
Individual RBL-2H3-cells (a tumour cell line related to the mast cells) adhering to glass slides are used.
The cultivation and attachment of the RBL-2H3-cells are carried out by the method described by HIDE and BEAVEN (1991). In order to sensitise the adhesive RBL-2H3-cells the cells are incubated for 2 hours at ambient temperature with a 1:2000 diluted commercial gammaglobulin E-solution against a dinitrophenol-bovine serum albumin complex (DNP-BSA-antigen). The cells are then washed. By the addition of 0.1 ml of DNP-BSA-solution (10 μg/ml) there is a massive immunological cell activation which is mediated by a cytoplasmic Ca^2+ -overload. The fluorometric calcium measurement in the cytoplasm of individual adhering RBL-2H3-cells is carried out analogously to the method described by KUDO and OGURA (1986) for neuronal cells, which is also explained hereinbefore in this specification.
The comparison used in these investigations is (10 μM) chromoglycate which brings about an approximately 50% inhibition of the antigen-induced cell activation.

The structures appear in SMILES notation.

Consider `O=C(O)c1cc(=O)c2c(OCC(O)COc3cccc4oc(C(=O)O)cc(=O)c34)cccc2o1` [chromoglycate], for which the inhibition at 10 µM was ~50%.

By inhibition is commonly meant the share of the control response that was lost under treatment.

The record behind these values is patent US5968948A, “Annelated dihydropyridines and the use thereof for preparing pharmaceutical preparations” (Boerhinger Ingelheim GmbH, priority 1993, dated 1999).
